Here are results for 89 compounds from ChEMBL document CHEMBL2448811, “Comparison of the accuracy of experimental and predicted pKa values of basic and acidic compounds” (Pharm Res, 2013).

Molecules are shown by their SMILES. Where a SMILES comes first, the peptide text is derived from it.

The nature of the first series: physchem.
Conditions: not given
By pKa is commonly meant the negative logarithm of the acid dissociation constant. `CC(Cc1ccc(C(C)(C)C)cc1)CN1C[C@@H](C)O[C@@H](C)C1` (some centres undefined) [FENPROPIMORPH]: the pKa was 7.34.

The compound `CCC(=O)O[C@](Cc1ccccc1)(c1ccccc1)[C@H](C)CN(C)C` [PROPOXYPHENE] displayed a pKa of 9.06.

Turning to `CCN(C)C(=O)Oc1cccc([C@H](C)N(C)C)c1` [RIVASTIGMINE], the pKa stood at 8.8.

The series is the same for the next values; noted with them: pKa.
Compound `Cc1cc(=O)oc2cc(O[C@@H]3O[C@H](CO)[C@@H](O)[C@H](O)[C@H]3O)ccc12` registered a pKa of 2.82.

Compound `CN(C)CCO[C@]1(c2ccccc2)C[C@H]2CC[C@]1(C)C2(C)C` registered a pKa of 9.61.

`CO[C@@H]1[C@@H](O[C@@H]2O[C@H](C)[C@@H](O)[C@H](N(C)C)[C@H]2O)[C@@H](CC=O)C[C@@H](C)C(=O)/C=C/[C@@H]2O[C@H]2C[C@@H](C)OC(=O)C[C@H]1OC(C)=O` gave a pKa of 8.44.

`N[C@@H](Cc1c[nH]c2ccccc12)C(=O)N[C@@H](Cc1ccccc1)C(=O)O` (H-Trp-Phe-OH) yielded a pKa of 3.18.

For `N[C@@H](Cc1c[nH]c2ccccc12)C(=O)N[C@@H](Cc1c[nH]c2ccccc12)C(=O)O` (H-Trp-Trp-OH), the pKa came out at 3.38.

`CCCCC[C@H](O)/C=C/[C@H]1[C@H](O)CC(=O)[C@@H]1CCCCCCC(=O)O` [ALPROSTADIL] came in with a pKa of 4.87.

`N[C@@H](CC(=O)O)C(=O)O` [ASPARTIC ACID] displayed a pKa of 9.67.

Compound `CCN(CC)C(=O)Nc1ccc(OCC(O)CNC(C)(C)C)c(C(C)=O)c1` (centres undefined) [CELIPROLOL] registered a pKa of 9.66.

In turn, `CCCCC[C@H](O)/C=C/[C@H]1[C@H](O)CC(=O)[C@@H]1C/C=C\CCCC(=O)O` [DINOPROSTONE] showed a pKa of 4.77.

`CNC[C@H](O)[C@@H](O)[C@H](O)[C@H](O)CO` [MEGLUMINE] had a pKa of 9.6.

`N[C@@H](Cc1ccccc1)C(=O)O` [PHENYLALANINE] displayed a pKa of 9.08.

As for `CNC(=C[N+](=O)[O-])NCCSCc1ccc(CN(C)C)o1` [RANITIDINE], the pKa came to 8.31.

The compound `CC[C@H]1OC(=O)C[C@@H](O)[C@H](C)[C@@H](O[C@@H]2O[C@H](C)C[C@H](N(C)C)[C@H]2O)[C@@H](CC=O)C[C@@H](C)C(=O)/C=C/C(C)=C/[C@@H]1C` [REPROMICIN] yielded a pKa of 8.83.

`CC[C@H]1OC(=O)[C@H](C)[C@@H](O[C@H]2C[C@@](C)(OC)[C@@H](O)[C@H](C)O2)[C@H](C)[C@@H](O[C@@H]2O[C@H](C)C[C@H](N(C)C)[C@H]2O)[C@](C)(O)C[C@@H](C)/C(=N\OCOCCOC)[C@H](C)[C@@H](O)[C@]1(C)O` [ROXITHROMYCIN] showed a pKa of 9.27.

The nature of the next series: physchem.
Conditions: not given
This is another data set of the same source.
For `CC(Cc1ccc(O)c(O)c1)(NN)C(=O)O` (centres undefined), the pKa is 3.5.

Turning to `CCCCC1CCN(CCCC(=O)c2ccccc2C)CC1`, the pKa came out at 7.85.

Turning to `CC1CCN(CC(=O)Nc2nc(-c3ccccc3)cs2)CC1`, the pKa was found to be 10.5.

In turn, `NC(=O)C1CCN(CC(=O)Nc2nc(-c3ccccc3)cs2)CC1` had a pKa of 10.2.

The compound `Cc1ccc(C)c(N2CCN(C3CCCC(C)C3)CC2)c1` (centres undefined) gave a pKa of 7.16.

Regarding `O=C(O)c1ccccc1C(=O)Nc1nc(-c2ccccc2)cs1`, the pKa was 3.4.

`COc1ccc(C(=O)CCC(=O)O)cc1` displayed a pKa of 4.7.

The compound `CC1CN(c2c(F)c(N)c3c(=O)c(C(=O)O)cn(C4CC4)c3c2F)CC(C)N1` (centres undefined) had a pKa of 6.1.

In turn, `Cc1cnc(NC(=O)CN2CCCCC2)s1` gave a pKa of 10.6.

With `O=C(O)c1ccccc1-c1ncc(-c2ccccc2)o1`, the pKa is 2.9.

The compound `O=C(CN1CCCCC1)Nc1nc(-c2ccc(Cl)cc2)cs1` displayed a pKa of 10.4.

As to `CCOC(=O)c1csc(NC(=O)CN2CCCCC2)n1`, the pKa came to 9.9.

With `Cc1nc(NC(=O)CCCC(=O)O)sc1C`, the pKa stood at 2.5.

In turn, `O=C(O)CSCC(=O)Nc1nc(-c2ccccc2)c(-c2ccccc2)s1` had a pKa of 4.

`O=C(O)c1cc(-c2ccccc2)nc(O)n1`: the pKa came out at 2.5.

For `FC(F)(F)c1cccc(N2CCN(C3C4CC5CC(C4)CC3C5)CC2)c1` (centres undefined), the pKa was 7.45.

`Nc1cc(-c2ccccc2)nc2ccc(Br)cc12` yielded a pKa of 7.4.

Take `Nc1cc(-c2ccccc2)nc2ccc(Cl)cc12`: the pKa came to 7.4.

As for `NCc1cc(-c2ccccc2)nc2ccccc12`, the pKa amounted to 8.37.

`O=C(CN1CCCCC1)Nc1ncc(Cc2cccc3ccccc23)s1`: the pKa came to 10.5.

Consider `c1cnc(N2CCN(C3CC4CCC3C4)CC2)nc1` (centres undefined), for which the pKa was determined as 8.

In turn, `CC[C@]12CCCN3CCc4c(n(c5ccccc45)[C@@](O)(C(=O)OC)C1)C32` (some centres undefined) yielded a pKa of 7.9.

Turning to `Cc1c(Cl)cccc1-n1ncc(C(=O)Nc2nccs2)c1C1CCNCC1`, the pKa came out at 9.4.

Compound `Cc1ccc(C)c(N2CCN(C3C4CC5CC(C4)CC3C5)CC2)c1` (centres undefined) showed a pKa of 7.6.

In turn, `Cc1ccc(C)c(N2CCN(C3CCC(C)C3)CC2)c1` (centres undefined) came in with a pKa of 7.5.

`Cc1ccc(C)c(N2CCN(C3CCCCCC3)CC2)c1` came in with a pKa of 7.54.

With `CC1CCC(N2CCN(c3ccccc3F)CC2)CC1` (centres undefined), the pKa is 7.4. This pKa and that of the compound before are within 0.2 log units of each other.

Regarding `Cc1ccc(-n2ncc(C(=O)Nc3nccs3)c2C2CCNCC2)cc1C`, the pKa was 9.5.

In turn, `Cc1cccc(-n2ncc(C(=O)Nc3nccs3)c2C2CCNCC2)c1` showed a pKa of 9.5.

`COc1ccc2nc(NC(=O)CN3CCC(C)CC3)sc2c1` displayed a pKa of 10.

`CC1CCN(CC(=O)Nc2ncc(Cc3cccc4ccccc34)s2)CC1`: the pKa is 10.6.

`CN(C)CCNC(=O)c1cc(-c2ccccc2)nc2ccccc12` gave a pKa of 8.3.

`COc1cc(CN2CCC3(C=Cc4ccccc43)CC2)cc(OC)c1OC`: the pKa stood at 8.4.

`COc1ccc2nc(-c3ccccc3)cc(N)c2c1` gave a pKa of 8.7.

The compound `COc1ccc2nc(NC(=O)CN3CCCCC3)sc2c1` returned a pKa of 10.

In turn, `CC1OC(O[C@H]2/C=C/C=C/C=C/C=C/C=C/C=C/C=C/[C@H](C)[C@@H](O)[C@@H](C)[C@H](C)OC(=O)C[C@H](O)C[C@H](O)CC[C@@H](O)[C@H](O)C[C@H](O)C[C@]3(O)C[C@H](O)[C@@H](C(=O)O)[C@H](C2)O3)C(O)C(N)C1O` (some centres undefined) gave a pKa of 3.1.

`O=C1NCN(c2ccccc2)C12CCN(CCCC(c1ccc(F)cc1)c1ccc(F)cc1)CC2` had a pKa of 7.7.

Turning to `O=C(N[C@H]1CCCC[C@H]1C(=O)O)c1ccccc1`, the pKa came to 3.3.

The compound `Nc1c2c(nc3ccccc13)-c1ccccc1CC2` returned a pKa of 8.1.

In turn, `C=CC1=C(C(=O)O)N2C(=O)[C@@H](NC(=O)/C(=N\O)c3csc(N)n3)[C@H]2SC1` showed a pKa of 3.35.

`CN(C)CCC=C1c2ccccc2CCc2ccccc21` [AMITRIPTYLINE] returned a pKa of 8.2.

For the compound `CN(C)CCC(c1ccc(Br)cc1)c1ccccn1` (centres undefined) [BROMPHENIRAMINE], the pKa amounted to 10.1.

As for `Cn1nnnc1SCC1=C(C(=O)O)N2C(=O)[C@@H](NC(=O)[C@H](O)c3ccccc3)[C@H]2SC1` [CEFAMANDOLE], the pKa came out at 3.4.

The compound `CCN(CC)CCOC(=O)c1ccc(N)cc1Cl` [CHLOROPROCAINE] returned a pKa of 9.

`CN(C)CCCN1c2ccccc2CCc2ccc(Cl)cc21` [CLOMIPRAMINE] returned a pKa of 9.1.

Consider `CN1CCN(C2=Nc3cc(Cl)ccc3Nc3ccccc32)CC1` [CLOZAPINE], for which the pKa is 7.8.

As for `CN(C)CCC=C1c2ccccc2C=Cc2ccccc21` [CYCLOBENZAPRINE], the pKa was determined as 8.24.

`O=C(CCCN1CC=C(n2c(=O)[nH]c3ccccc32)CC1)c1ccc(F)cc1` [DROPERIDOL]: the pKa stood at 7.6.

As for `CCCCOc1ccc(C(=O)CCN2CCCCC2)cc1` [DYCLONINE], the pKa is 9.

`C=C(CC)C(=O)c1ccc(OCC(=O)O)c(Cl)c1Cl` [ETHACRYNIC ACID] displayed a pKa of 3.1.

Compound `CC(NCCC(c1ccccc1)c1ccccc1)c1ccccc1` (centres undefined) [FENDILINE] displayed a pKa of 9.3.

As for `CC(C(=O)O)c1ccc(-c2ccccc2)c(F)c1` (centres undefined) [FLURBIPROFEN], the pKa worked out at 4.3.

In the case of `O=C(CCCN1CCC(O)(c2ccc(Cl)cc2)CC1)c1ccc(F)cc1` [HALOPERIDOL], the pKa was 8.5.

Consider `CCn1cc(C(=O)O)c(=O)c2cc(F)c(N3CCNC(C)C3)c(F)c21` (centres undefined) [LOMEFLOXACIN], for which the pKa came to 5.74.

Regarding `CN1CCCCC1CCN1c2ccccc2Sc2ccc([S+](C)[O-])cc21` (centres undefined) [MESORIDAZINE], the pKa was determined as 9.5.

For `CC(CN(C)C)CN1c2ccccc2Sc2ccccc21` (centres undefined) [METHYLPROMAZINE], the pKa was found to be 8.5.

The compound `Clc1ccc2c(c1)N=C(N1CCNCC1)c1ccccc1N2` [N-DESMETHYLCLOZAPINE] yielded a pKa of 8.9.

Take `O=C(O)c1cccnc1` [NIACIN]: the pKa was 2.4.

Regarding `CCn1cc(C(=O)O)c(=O)c2cc(F)c(N3CCNCC3)cc21` [NORFLOXACIN], the pKa came out at 6.05.

Compound `O=C1CCCN1CC#CCN1CCCC1` [OXOTREMORINE] registered a pKa of 8.4.

As for `O=c1[nH]c2ccccc2n1C1CCN(CCCC(c2ccc(F)cc2)c2ccc(F)cc2)CC1` [PIMOZIDE], the pKa stood at 7.45.

`CC(CN1c2ccccc2Sc2ccccc21)N(C)C` (centres undefined) [PROMETHAZINE] came in with a pKa of 8.7.

`CCOc1cc(CC(=O)N[C@@H](CC(C)C)c2ccccc2N2CCCCC2)ccc1C(=O)O` [REPAGLINIDE] gave a pKa of 3.75.

On to `CN[C@H]1CC[C@@H](c2ccc(Cl)c(Cl)c2)c2ccccc21` [SERTRALINE], for which the pKa was 8.

As to `CC(C(=O)O)c1ccc(C(=O)c2cccs2)cc1` (centres undefined) [SUPROFEN], the pKa was found to be 4.3.

Consider `CC/C(=C(\c1ccccc1)c1ccc(OCCN(C)C)cc1)c1ccccc1` [TAMOXIFEN], for which the pKa is 10.

The compound `CN(C/C=C/C#CC(C)(C)C)Cc1cccc2ccccc12` [TERBINAFINE] registered a pKa of 7.12.

For the compound `CC(C)(C)c1ccc(C(O)CCCN2CCC(C(O)(c3ccccc3)c3ccccc3)CC2)cc1` (centres undefined) [TERFENADINE], the pKa is 8.5.

`CCCCNc1ccc(C(=O)OCCN(C)C)cc1` [TETRACAINE]: the pKa came out at 8.6.

`CC(CN(C)C)CN1c2ccccc2CCc2ccccc21` (centres undefined) [TRIMIPRAMINE] displayed a pKa of 8.5.

Turning to `Cc1ccc(/C(=C\CN2CCCC2)c2ccccn2)cc1` [TRIPROLIDINE], the pKa amounted to 9.25.

Take `CCOC(=O)C1=C[C@]2(CC)CCCN3CCc4c(n1c1ccccc41)[C@@H]32` [VINPOCETINE]: the pKa was 7.1.
